Our source for the Activity and Tmax values is ChEMBL document CHEMBL5543126, “Combinatorial Ubiquitination REal-time PROteolysis (CURE-PROs): A Modular Platform for Generating Reversible, Self-Assembling Bifunctional Targeted Degraders” (J Med Chem, 2024).

Activity calls are given as the source filed them. The rule behind the calls is not given here.

Common to all, as to format: cell-based
Assay [1] deals with T1, von Hippel-Lindau disease tumor suppressor/Bromodomain-containing protein 4 (Homo sapiens, UniProt O60885+P40337). Put plainly: PROTAC activity at VHL/BRD4 in human MCF7 cells assessed as induction of BRD4 degradation at 10 uM incubated for 24 hrs in presence of VHL ligand based (2S,4R)-1-((S)-2-(2,3-dihydroxybenzamido)-3,3-dimethylbutanoyl)-4-hydroxy-N-(4-(4-methylthiazol-5-yl)benzyl)pyrrolidine-2-carboxamide by Western blot based Combinatorial Ubiquitination Real-time PROteolysis analysis.

The target of assay [2] is T1, von Hippel-Lindau disease tumor suppressor/Bromodomain-containing protein 4. Put plainly: PROTAC activity at BRD4/VHL in human MCF7 cells assessed as induction of BRD4 degradation by measuring residual activity at 300 nM incubated for 24 hrs in presence of 10 uM VHL based ligand (2S,4R)-1-((S)-2-(2,3-dihydroxybenzamido)-3,3-dimethylbutanoyl)-4-hydroxy-N-(4-(4-methylthiazol-5-yl)benzyl)pyrrolidine-2-carboxamide by Western blot based Combinatorial Ubiquitination Real-time PROteolysis analysis.

Assay [3] shares this target. Put plainly: PROTAC activity at BRD4/VHL in human MCF7 cells assessed as induction of BRD4 degradation by measuring residual activity at 1 uM incubated for 24 hrs in presence of 100 nM BRD4 based ligand ((4S)-6-(4-chlorophenyl)-4-(2-(ethylamino)-2-oxoethyl)-1-methyl4Hbenzo[f][1,2,4]triazolo [4,3-a][1,4]diazepin-8-yl)boronic acid by Western blot based Combinatorial Ubiquitination Real-time PROteolysis analysis.

Assay [4] shares this target. Nature of the assay: PROTAC activity at VHL/BRD4 in HEK293 cells assessed as induction of BRD4 degradation by measuring Tmax at 1 uM measured every 15 mins for 24 hrs in presence of VHL based ligand (2S,4R)-1-((S)-2-(2,3-dihydroxybenzamido)-3,3-dimethylbutanoyl)-4-hydroxy-N-(4-(4-methylthiazol-5-yl)benzyl)pyrrolidine-2-carboxamide by HiBiT based Combinatorial Ubiquitination Real-time PROteolysis analysis. In general terms: The HiBiT peptide binds its large partner to form an active luciferase.

Assay [5] has the same target. Nature of the assay: PROTAC activity at BRD4/VHL in human MCF7 cells assessed as induction of BRD4 degradation by measuring residual activity at 100 nM incubated for 24 hrs in presence of VHL based ligand (2S,4R)-1-((S)-2-(2,3-dihydroxybenzamido)-3,3-dimethylbutanoyl)-4-hydroxy-N-(4-(4-methylthiazol-5-yl)benzyl)pyrrolidine-2-carboxamide by Western blot based Combinatorial Ubiquitination Real-time PROteolysis analysis.

Assay [6] has the same target. Nature of the assay: PROTAC activity at BRD4/VHL in human MCF7 cells assessed as induction of BRD4 degradation by measuring residual activity at 3 uM incubated for 24 hrs in presence of 10 uM VHL based ligand (2S,4R)-1-((S)-2-(2,3-dihydroxybenzamido)-3,3-dimethylbutanoyl)-4-hydroxy-N-(4-(4-methylthiazol-5-yl)benzyl)pyrrolidine-2-carboxamide by Western blot based Combinatorial Ubiquitination Real-time PROteolysis analysis.

The target is the same in assay [7]. Put plainly: PROTAC activity at VHL/BRD4 in HEK293 cells assessed as induction of BRD4 degradation by measuring degradation rate at 0.3 uM measured every 15 mins for 24 hrs in presence of VHL based ligand (2S,4R)-1-((S)-2-(2,3-dihydroxybenzamido)-3,3-dimethylbutanoyl)-4-hydroxy-N-(4-(4-methylthiazol-5-yl)benzyl)pyrrolidine-2-carboxamide by HiBiT based Combinatorial Ubiquitination Real-time PROteolysis analysis.

Assay [8] has the same target. Nature of the assay: PROTAC activity at BRD4/VHL in human MCF7 cells assessed as induction of BRD4 degradation by measuring residual activity at 10 uM incubated for 24 hrs in presence of VHL based ligand (2S,4R)-1-((S)-2-(2,3-dihydroxybenzamido)-3,3-dimethylbutanoyl)-4-hydroxy-N-(4-(4-methylthiazol-5-yl)benzyl)pyrrolidine-2-carboxamide by Western blot based Combinatorial Ubiquitination Real-time PROteolysis analysis. A general note: A western blot detects proteins with antibodies after separation by electrophoresis.

For assay [9] the target is unchanged. Put plainly: PROTAC activity at BRD4/VHL in human MCF7 cells assessed as induction of BRD4 degradation by measuring residual activity at 10 uM incubated for 24 hrs in presence of 1 uM BRD4 based ligand ((4S)-6-(4-chlorophenyl)-4-(2-(ethylamino)-2-oxoethyl)-1-methyl4Hbenzo[f][1,2,4]triazolo [4,3-a][1,4]diazepin-8-yl)boronic acid by Western blot based Combinatorial Ubiquitination Real-time PROteolysis analysis.

Assay [10] has the same target. Put plainly: PROTAC activity at VHL/BRD4 in HEK293 cells assessed as induction of BRD4 degradation by measuring degradation rate at 3 uM measured every 15 mins for 24 hrs in presence of BRD4 based ligand ((4S)-6-(4-chlorophenyl)-4-(2-(ethylamino)-2-oxoethyl)-1-methyl4Hbenzo[f][1,2,4]triazolo [4,3-a][1,4]diazepin-8-yl)boronic acid by HiBiT based Combinatorial Ubiquitination Real-time PROteolysis analysis.

Assay [11] has the same target. Put plainly: PROTAC activity at BRD4/VHL in human MCF7 cells assessed as induction of BRD4 degradation by measuring residual activity at 1 uM incubated for 24 hrs in presence of 10 uM BRD4 based ligand ((4S)-6-(4-chlorophenyl)-4-(2-(ethylamino)-2-oxoethyl)-1-methyl4Hbenzo[f][1,2,4]triazolo [4,3-a][1,4]diazepin-8-yl)boronic acid by Western blot based Combinatorial Ubiquitination Real-time PROteolysis analysis.

Assay [12] shares this target. Put plainly: PROTAC activity at BRD4/VHL in human MCF7 cells assessed as induction of BRD4 degradation by measuring residual activity at 300 nM incubated for 24 hrs in presence of 1 uM BRD4 based ligand ((4S)-6-(4-chlorophenyl)-4-(2-(ethylamino)-2-oxoethyl)-1-methyl4Hbenzo[f][1,2,4]triazolo [4,3-a][1,4]diazepin-8-yl)boronic acid by Western blot based Combinatorial Ubiquitination Real-time PROteolysis analysis.

The target is the same in assay [13]. Put plainly: PROTAC activity at BRD4/VHL in human MCF7 cells assessed as induction of BRD4 degradation by measuring residual activity at 300 nM incubated for 24 hrs in presence of 100 nM BRD4 based ligand ((4S)-6-(4-chlorophenyl)-4-(2-(ethylamino)-2-oxoethyl)-1-methyl4Hbenzo[f][1,2,4]triazolo [4,3-a][1,4]diazepin-8-yl)boronic acid by Western blot based Combinatorial Ubiquitination Real-time PROteolysis analysis.

For assay [14] the target is unchanged. Nature of the assay: PROTAC activity at VHL/BRD4 in HEK293 cells assessed as induction of BRD4 degradation by measuring degradation rate at 0.3 uM measured every 15 mins for 24 hrs in presence of BRD4 based ligand ((4S)-6-(4-chlorophenyl)-4-(2-(ethylamino)-2-oxoethyl)-1-methyl4Hbenzo[f][1,2,4]triazolo [4,3-a][1,4]diazepin-8-yl)boronic acid by HiBiT based Combinatorial Ubiquitination Real-time PROteolysis analysis.

For assay [15] the target is unchanged. Put plainly: PROTAC activity at BRD4/VHL in human MCF7 cells assessed as induction of BRD4 degradation by measuring residual activity at 3 uM incubated for 24 hrs in presence of 100 nM BRD4 based ligand ((4S)-6-(4-chlorophenyl)-4-(2-(ethylamino)-2-oxoethyl)-1-methyl4Hbenzo[f][1,2,4]triazolo [4,3-a][1,4]diazepin-8-yl)boronic acid by Western blot based Combinatorial Ubiquitination Real-time PROteolysis analysis.

T1 sequence (P40337 whole entry, looked up, other chains not shown): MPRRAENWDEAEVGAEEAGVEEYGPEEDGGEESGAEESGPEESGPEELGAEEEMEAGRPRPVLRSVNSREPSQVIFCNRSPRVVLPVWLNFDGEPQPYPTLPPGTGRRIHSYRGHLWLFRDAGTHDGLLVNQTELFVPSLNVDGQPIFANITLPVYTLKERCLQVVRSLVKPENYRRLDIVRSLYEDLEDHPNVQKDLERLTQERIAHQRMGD

For `CCNC(=O)C[C@@H]1N=C(c2ccc(Cl)cc2)c2cc(B(O)O)ccc2-n2c(C)nnc21`, the result in assay [1] was Active. Moreover, the Activity in assay [2] was 40%; in assay [3] it was 56%; in [5], 89%; in [6] it was 16%; in assay [7], 0.144 h⁻¹; in assay [8], 95%. For the same compound, the Tmax in assay [4] is 19.5 h.
As to `Cc1ncsc1-c1ccc(CNC(=O)[C@@H]2C[C@@H](O)CN2C(=O)[C@@H](NC(=O)c2cccc(O)c2O)C(C)(C)C)cc1`, the Activity in assay [9] was 21%; in [10], 0.908 h⁻¹; in [11], 20%; in [12], 38%; in assay [13], 72%; in assay [14], 0.144 h⁻¹. In addition, in assay [15], the Activity came to 51%.
